Measured values: PubChem BioAssay (NCI)
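Compound exposure: 48 hours, 5 concentrations, 96-well plates. TGI: total growth inhibition.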

What was measured:
Assay in all cases: NCI anticancer screen, dose series, 48 h
BT-549 breast = tested on: BT-549 breast
HCT-116 colon = tested on: HCT-116 colon
HCT-15 colon = tested on: HCT-15 colon
IGROV1 ovarian = tested on: IGROV1 ovarian
K-562 leukemia = tested on: K-562 leukemia
MCF7 breast = tested on: MCF7 breast
MDA-MB-231 breast = tested on: MDA-MB-231 breast
MOLT-4 leukemia = tested on: MOLT-4 leukemia
NCI-H226 lung = tested on: NCI-H226 lung
NCI-H23 lung = tested on: NCI-H23 lung
OVCAR-4 ovarian = tested on: OVCAR-4 ovarian
OVCAR-8 ovarian = tested on: OVCAR-8 ovarian
RPMI-8226 leukemia = tested on: RPMI-8226 leukemia
RXF 393 renal = tested on: RXF 393 renal
SK-MEL-2 melanoma = tested on: SK-MEL-2 melanoma
SK-MEL-5 melanoma = tested on: SK-MEL-5 melanoma
SW-620 colon = tested on: SW-620 colon
U251 CNS = tested on: U251 CNS
UACC-257 melanoma = tested on: UACC-257 melanoma
UACC-62 melanoma = tested on: UACC-62 melanoma

Compound	TGI (BT-549 breast)	TGI (HCT-116 colon)	TGI (HCT-15 colon)	TGI (IGROV1 ovarian)	TGI (K-562 leukemia)	TGI (MCF7 breast)	TGI (MDA-MB-231 breast)	TGI (MOLT-4 leukemia)	TGI (NCI-H226 lung)	TGI (NCI-H23 lung)	TGI (OVCAR-4 ovarian)	TGI (OVCAR-8 ovarian)	TGI (RPMI-8226 leukemia)	TGI (RXF 393 renal)	TGI (SK-MEL-2 melanoma)	TGI (SK-MEL-5 melanoma)	TGI (SW-620 colon)	TGI (U251 CNS)	TGI (UACC-257 melanoma)	TGI (UACC-62 melanoma)
O=C(/C=C/c1ccc(O)c(O)c1)NC(COC(=O)/C=C/c1ccc(O)c(O)c1)C(=O)O (stereo not drawn)	> 100 µM	> 100 µM	> 100 µM	> 100 µM	> 100 µM	> 100 µM	> 100 µM	> 100 µM	> 100 µM	> 100 µM	> 100 µM	> 100 µM	> 100 µM	> 100 µM	> 100 µM	> 100 µM	> 100 µM	> 100 µM	> 100 µM	> 100 µM
COc1ccccc1N1C(=O)CSC1c1cc(OC)c(OC)c(OC)c1 (stereo not drawn)	98.3 µM	> 100 µM	> 100 µM	> 100 µM	> 100 µM	> 100 µM	> 100 µM	> 100 µM	> 100 µM	> 100 µM	> 100 µM	> 100 µM	> 100 µM	> 100 µM	> 100 µM	> 100 µM	> 100 µM	> 100 µM	> 100 µM	> 66.1 µM
Cc1c(-c2nc(N)c(C#N)c(N)c2C#N)c(=O)oc2ccccc12	> 100 µM	> 100 µM	> 100 µM	> 100 µM	> 100 µM	> 100 µM	> 100 µM		> 100 µM	> 100 µM	> 100 µM	> 100 µM	62.4 µM	> 100 µM	> 100 µM	> 100 µM	> 100 µM	> 100 µM	> 100 µM	> 100 µM
COc1cc2c(cc1O)Cc1c-2[n+](C)cc2cc(OC)c(OC)cc12	> 57.9 µM	> 100 µM	> 100 µM	> 100 µM	> 100 µM	> 100 µM	> 100 µM	> 39.4 µM	> 100 µM	> 100 µM	> 100 µM	> 100 µM	> 100 µM	> 100 µM	> 100 µM	23.3 µM	> 100 µM	21.5 µM	> 100 µM	> 77.9 µM
CCCCCCCC(CC(=O)NC(CO)C(=O)NC(CO)CC(C)C)OC(=O)CC(CCCCCCC)OC(=O)CC(CCCCCCC)OC1OC(C)C(O)C(OC2OC(C)C(O)C(O)C2O)C1O (stereo not drawn)	28.8 µM	20.8 µM	34.6 µM	26.4 µM	25.7 µM	> 52.3 µM	26.6 µM	28.2 µM	38.7 µM	30 µM	28 µM	34.4 µM	8.96 µM	31.2 µM	13.3 µM	21.3 µM	33.4 µM	24.7 µM	26.6 µM	27.9 µM
CC(=O)O[C@H]1CC[C@@]2(C)C(=CC[C@@H]3[C@@H]2CC[C@](C)(c2nnc(C)o2)[C@H]3CC#N)C1	> 100 µM	> 100 µM	> 100 µM	> 100 µM	> 100 µM	> 100 µM	> 100 µM	> 100 µM	> 100 µM	> 100 µM	> 100 µM	> 100 µM	> 100 µM	> 100 µM	> 100 µM	> 100 µM	> 100 µM	> 100 µM	> 100 µM	> 100 µM
CCCCCCCc1cscc1-c1cscc1Br	> 100 µM	> 100 µM	> 100 µM	> 100 µM	> 100 µM	> 100 µM	> 100 µM	42.3 µM	> 100 µM	> 100 µM	> 100 µM	> 100 µM	47 µM	67 µM	34.1 µM	> 100 µM	> 100 µM	> 100 µM	> 100 µM	> 100 µM
O=C(CCc1ccc(O)c(O)c1)NCCc1cc(O)c(O)c(O)c1	31.1 µM	33 µM	32.1 µM	> 100 µM	41.4 µM	21.7 µM	28.5 µM	46.5 µM	> 100 µM	31.3 µM	34.5 µM	36.2 µM	> 100 µM	> 100 µM	50.6 µM	66.2 µM	35.5 µM	31.7 µM	> 100 µM	> 100 µM
CSC1=C(C#N)C(=O)N(c2ccc(C)cc2)C(=O)C1C#N (stereo not drawn)	> 100 µM	> 100 µM	> 100 µM	> 100 µM	> 100 µM	> 100 µM	> 100 µM	> 100 µM	> 100 µM	> 100 µM	> 100 µM		> 100 µM	> 100 µM	> 100 µM	> 100 µM	> 100 µM	> 100 µM	> 100 µM	> 100 µM
